Data as given in patent publication US20250107513A1, “METHOD FOR COUNTING EMBRYOS DEVELOPING IN A UTERUS OF CAENORHABDITIS ELEGANS” (Shanghai University, priority 2022, published 2025).

Test system: Caenorhabditis elegans
Test: counting embryos developing in the uterus of Caenorhabditis elegans after TPHP exposure
Format: in vivo
Details: then cultured until pregnancy, relative to the control group, p<0.01
Protocol: As shown in a flowchart (FIG. 1) of a method in the present invention, this embodiment provides a method for counting embryos developing in a uterus of Caenorhabditis elegans exposed to a chemical of triphenyl phosphate (TPHP) for 72 hours, specifically including the following steps:
Step 5: Subject Caenorhabditis elegans to synchronization treatment. Nematode eggs are added dropwise to the NGM medium containing no E. coli, the nematode eggs are cultured at 20° C. for 16 to 20 hours under dark conditions, where Caenorhabditis elegans are in the L1 stage, and Caenorhabditis elegans at the stage are rinsed into a 1.5 mL centrifuge tube with the K solution 3 times.
Step 6: Prepare exposure solutions. 0.1000 g of TPHP solid is weighed accurately, the TPHP solid is dissolved in dimethyl sulfoxide until a concentration reaches 10 g/L, and then TPHP solutions are diluted with dimethyl sulfoxide again until concentrations reach 10 mg/L, 100 mg/L, 1000 mg/L and 5000 mg/L to be used as mother liquors later. Dimethyl sulfoxide is used as the mother liquor of the blank control group. The mother liquors are further diluted by 100 folds with the K solution and then diluting the diluted mother liquors by 100 folds with a K+ solution to finally obtain exposure solutions of Caenorhabditis elegans containing 0 μg/L (control group), 1 μg/L, 10 μg/L, 100 μg/L and 500 μg/L TPHP.
Step 7: Expose Caenorhabditis elegans to a TPHP solution. A prepared TPHP exposure solution is added to a sterile 6-well plate with 5 mL of prepared TPHP exposure solution per well. Caenorhabditis elegans at the L1 stage are then evenly added to the 6-well plate after the synchronization treatment, Caenorhabditis elegans are fed with 100 μg/L E. coli daily, and Caenorhabditis elegans are cultured for 72 hours.
Step 8: Select Caenorhabditis elegans at an exposure stage. The method in the present invention is applicable to pregnant Caenorhabditis elegans, and this is because Caenorhabditis elegans are […] after being exposed to TPHP for 72 hours. […]
Step 11: Count embryos in the uterus of Caenorhabditis elegans. The 24-well plate containing transparent Caenorhabditis elegans is put under an optical stereomicroscope, and exposed embryos of each Caenorhabditis elegans are counted, where exposed embryos of at least 25 nematodes are counted in each treatment group.
Step 12: Analyze data. Data is analyzed by using SPSS software, a confidence interval of samples is set to 95%, and an intra-group mean and mean error of the numbers of embryos developing in nematodes in different treatment groups are calculated, where the data can be selectively in a format of a mean percentage or multiple based on requirements of the experiment. […]

O=P(Oc1ccccc1)(Oc1ccccc1)Oc1ccccc1 [TPHP, triphenyl phosphate]
decrease in the numbers of embryos in the uteri (exposure to 1 μg/L TPHP from L1 stage for 72 hours): 14.2%
decrease in the numbers of embryos in the uteri (exposure to 10 μg/L TPHP from L1 stage for 72 hours): 18.2%
decrease in the numbers of embryos in the uteri (exposure to 100 μg/L TPHP from L1 stage for 72 hours): 18.1%
decrease in the numbers of embryos in the uteri (exposure to 500 μg/L TPHP from L1 stage for 72 hours): 21.8%
